12 compounds from patent US20250235543A1, “MODIFIED PROTEINS AND PROTEIN DEGRADERS” (Cullgen (Shanghai), Inc., priority 2021, published 2025) can be followed below.

One assay addresses T1, CDK4 (Homo sapiens, UniProt P11802).
T1 construct: endogenous in cells; host or cells: Calu-1
As to the kind of experiment: CDK4 percentage degradation in Calu-1 cells (immunoblotting). It is filed as cell-based. Conditions: read-out: CDK4 Degradation (200 nM). In outline: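 Cultured cells were rinsed once in cold PBS and lysed in cold RIPA buffer containing protease and phosphatase inhibitors, with gentle agitation at 4° C. for 30 min. Lysates were centrifuged at 13,000 rpm for 10 min at 4° C., and protein was quantified by BCA. Samples were then separated by SDS-PAGE, detected with ECL, and the CDK4 bands quantified in Image Lab.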
Background: In western blotting, separated proteins are transferred to a membrane and probed.

The next assay has as its system cyclin D1. As to the kind of experiment: Cyclin D1 percentage degradation in Calu-1 cells (immunoblotting). The format is cell-based. The conditions noted are these: 200 nM, 16 hours. In outline:
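Cells were rinsed once in cold PBS and lysed in cold RIPA buffer containing protease and phosphatase inhibitors, with gentle agitation at 4° C. for 30 min. Lysates were spun at 13,000 rpm for 10 min at 4° C., protein was measured by BCA, and samples were boiled in Laemmli buffer at 99° C. for 5 min before SDS-PAGE immunoblotting.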

Like-named read-outs stand apart in the source and are kept apart here. Where only a bound is given, the exact number is not on record here.

T1 sequence (P11802 2-303 limits assumed): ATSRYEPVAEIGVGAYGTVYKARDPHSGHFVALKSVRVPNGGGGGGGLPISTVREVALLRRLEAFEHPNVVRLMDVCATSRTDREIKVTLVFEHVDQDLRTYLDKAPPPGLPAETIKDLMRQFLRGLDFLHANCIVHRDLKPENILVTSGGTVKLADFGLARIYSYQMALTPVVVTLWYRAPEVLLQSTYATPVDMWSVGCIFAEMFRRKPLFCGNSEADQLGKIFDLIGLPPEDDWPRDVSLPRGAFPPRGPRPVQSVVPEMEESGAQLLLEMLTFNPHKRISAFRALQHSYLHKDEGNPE
T1 sequence (P24385 whole entry partner): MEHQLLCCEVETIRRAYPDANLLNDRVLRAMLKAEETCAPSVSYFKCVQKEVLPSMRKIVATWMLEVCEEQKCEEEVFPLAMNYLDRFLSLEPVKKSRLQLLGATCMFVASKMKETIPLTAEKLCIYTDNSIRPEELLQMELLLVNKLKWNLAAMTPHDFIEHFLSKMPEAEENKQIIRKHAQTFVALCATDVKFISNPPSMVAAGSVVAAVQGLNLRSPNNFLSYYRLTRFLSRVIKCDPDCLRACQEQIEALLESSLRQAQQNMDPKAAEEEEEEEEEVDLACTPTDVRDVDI
T1 sequence (Q16531 2-1140 limits assumed, further chain): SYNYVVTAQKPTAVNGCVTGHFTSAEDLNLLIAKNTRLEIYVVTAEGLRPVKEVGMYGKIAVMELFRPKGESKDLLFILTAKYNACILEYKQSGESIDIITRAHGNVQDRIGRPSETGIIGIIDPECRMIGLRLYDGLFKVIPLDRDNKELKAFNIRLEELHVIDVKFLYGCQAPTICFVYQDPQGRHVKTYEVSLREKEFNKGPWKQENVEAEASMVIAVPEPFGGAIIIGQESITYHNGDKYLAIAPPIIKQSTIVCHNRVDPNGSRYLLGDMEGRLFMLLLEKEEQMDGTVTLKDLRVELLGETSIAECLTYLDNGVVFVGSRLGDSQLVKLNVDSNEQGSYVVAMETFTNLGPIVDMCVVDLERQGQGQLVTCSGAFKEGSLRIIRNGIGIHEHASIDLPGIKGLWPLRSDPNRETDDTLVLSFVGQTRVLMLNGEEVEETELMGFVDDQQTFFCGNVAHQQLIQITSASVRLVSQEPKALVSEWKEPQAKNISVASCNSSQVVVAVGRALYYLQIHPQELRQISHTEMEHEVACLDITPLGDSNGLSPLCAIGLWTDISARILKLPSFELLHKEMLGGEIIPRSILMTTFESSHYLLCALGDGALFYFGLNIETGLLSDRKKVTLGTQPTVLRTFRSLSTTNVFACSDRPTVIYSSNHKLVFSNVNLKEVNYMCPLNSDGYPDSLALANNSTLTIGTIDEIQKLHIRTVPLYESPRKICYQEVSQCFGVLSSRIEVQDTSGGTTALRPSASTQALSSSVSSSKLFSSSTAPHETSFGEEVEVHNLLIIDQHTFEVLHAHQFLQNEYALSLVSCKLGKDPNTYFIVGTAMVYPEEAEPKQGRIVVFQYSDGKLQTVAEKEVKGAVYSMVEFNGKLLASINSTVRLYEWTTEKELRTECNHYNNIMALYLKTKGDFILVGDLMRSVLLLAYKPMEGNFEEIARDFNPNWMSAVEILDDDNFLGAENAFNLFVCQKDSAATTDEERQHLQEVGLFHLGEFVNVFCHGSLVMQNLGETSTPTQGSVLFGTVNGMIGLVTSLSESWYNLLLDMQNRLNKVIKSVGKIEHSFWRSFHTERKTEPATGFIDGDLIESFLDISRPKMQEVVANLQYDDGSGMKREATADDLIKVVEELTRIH

For `CC(=O)c1c(C)c2cnc(Nc3ccc(N4CCN(CC(=O)NCCCC(=O)Nc5ccccc5C(=O)Nc5nc(C)c(C)s5)CC4)cn3)nc2n(C2CCCC2)c1=O` [CPD-171, 2-(4-(2-(4-(6-((6-Acetyl-8-cyclopentyl-5-methyl-7-oxo-7,8-dihydropyrido[2,3-d]pyrimidin-2-yl)amino)pyridin-3-yl)piperazin-1-yl)acetamido)butanamido)-N-(4,5-dimethylthiazol-2-yl)benzamide], the inhibition at 0.2 µM on CDK4 (Calu-1 cells, 200 nM, 16 hours) was under 30%. Further, in the assay with cyclin D1, the “CyclinD1 Degradation (200 nM)” value is given as “D (protein percentage degradation <30%)”.

On to `CC(=O)c1c(C)c2cnc(Nc3ccc(N4CCN(CC(=O)NCCCCCC(=O)Nc5ccccc5C(=O)Nc5nc(C)c(C)s5)CC4)cn3)nc2n(C2CCCC2)c1=O` [CPD-172, 2-(6-(2-(4-(6-((6-Acetyl-8-cyclopentyl-5-methyl-7-oxo-7,8-dihydropyrido[2,3-d]pyrimidin-2-yl)amino)pyridin-3-yl)piperazin-1-yl)acetamido)hexanamido)-N-(4,5-dimethylthiazol-2-yl)benzamide], for which, on CDK4 (Calu-1 cells, 200 nM, 16 hours), the inhibition at 0.2 µM fell in the range of 30 to 50%. In the assay with cyclin D1, the “CyclinD1 Degradation (200 nM)” value is recorded as “D (protein percentage degradation <30%)”.

Take `CC(=O)c1c(C)c2cnc(Nc3ccc(N4CCN(CC(=O)NCCOCCOCCOCCOCCOCCOCCC(=O)Nc5ccccc5C(=O)Nc5nc(C)c(C)s5)CC4)cn3)nc2n(C2CCCC2)c1=O` [CPD-173, 2-(1-(4-(6-((6-Acetyl-8-cyclopentyl-5-methyl-7-oxo-7,8-dihydropyrido[2,3-d]pyrimidin-2-yl)amino)pyridin-3-yl)piperazin-1-yl)-2-oxo-6,9,12,15,18,21-hexaoxa-3-azatetracosan-24-amido)-N-(4,5-dimethylthiazol-2-yl)benzamide]: the inhibition at 0.2 µM at CDK4 (Calu-1 cells, 200 nM, 16 hours) is over 80%. The “CyclinD1 Degradation (200 nM)” value with cyclin D1 was “A (protein percentage degradation >=80%)”.

Turning to `CC(=O)c1c(C)c2cnc(Nc3ccc(N4CCN(CC(=O)NCCCCC(=O)Nc5ccccc5C(=O)Nc5nc(C)c(C)s5)CC4)cn3)nc2n(C2CCCC2)c1=O` [CPD-174, 2-(5-(2-(4-(6-((6-Acetyl-8-cyclopentyl-5-methyl-7-oxo-7,8-dihydropyrido[2,3-d]pyrimidin-2-yl)amino)pyridin-3-yl)piperazin-1-yl)acetamido)pentanamido)-N-(4,5-dimethylthiazol-2-yl)benzamide], at CDK4 (Calu-1 cells, 200 nM, 16 hours), the inhibition at 0.2 µM was over 80%. In addition, the “CyclinD1 Degradation (200 nM)” value in the assay with cyclin D1 is recorded as “A (protein percentage degradation >=80%)”.

As to `CC(=O)c1c(C)c2cnc(Nc3ccc(N4CCN(CC(=O)NCCOCCOCCOCCOCCOCCC(=O)Nc5ccccc5C(=O)Nc5nc(C)c(C)s5)CC4)cn3)nc2n(C2CCCC2)c1=O` [CPD-175, 2-(1-(4-(6-((6-Acetyl-8-cyclopentyl-5-methyl-7-oxo-7,8-dihydropyrido[2,3-d]pyrimidin-2-yl)amino)pyridin-3-yl)piperazin-1-yl)-2-oxo-6,9,12,15,18-pentaoxa-3-azahenicosan-21-amido)-N-(4,5-dimethylthiazol-2-yl)benzamide], the inhibition at 0.2 µM at CDK4 (Calu-1, 16 h) is over 80%. The “CyclinD1 Degradation (200 nM)” value in the assay with cyclin D1 is recorded as “A (protein percentage degradation >=80%)”.

As to `CC(=O)c1c(C)c2cnc(Nc3ccc(N4CCN(C(=O)CCOCCOCCOCCOCCC(=O)Nc5ccccc5C(=O)Nc5nc(C)c(C)s5)CC4)cn3)nc2n(C2CCCC2)c1=O` [CPD-176, 16-(4-(6-((6-Acetyl-8-cyclopentyl-5-methyl-7-oxo-7,8-dihydropyrido[2,3-d]pyrimidin-2-yl)amino)pyridin-3-yl)piperazin-1-yl)-N-(2-((4,5-dimethylthiazol-2-yl)carbamoyl)phenyl)-16-oxo-4,7,10,13-tetraoxahexadecanamide], the inhibition at 0.2 µM at CDK4 (Calu-1, 16 h) is over 80%. Also, the “CyclinD1 Degradation (200 nM)” value in the assay on cyclin D1 was “A (protein percentage degradation >=80%)”.

As to `CC(=O)c1c(C)c2cnc(Nc3ccc(N4CCN(CCCCCCCCCCCC(=O)Nc5ccccc5C(=O)Nc5nc(C)c(C)s5)CC4)cn3)nc2n(C2CCCC2)c1=O` [CPD-177, 2-(12-(4-(6-((6-Acetyl-8-cyclopentyl-5-methyl-7-oxo-7,8-dihydropyrido[2,3-d]pyrimidin-2-yl)amino)pyridin-3-yl)piperazin-1-yl)dodecanamido)-N-(4,5-dimethylthiazol-2-yl)benzamide], at CDK4 (Calu-1, 16 h), the inhibition at 0.2 µM was under 30%. Besides, the “CyclinD1 Degradation (200 nM)” value in the assay on cyclin D1 is reported as “D (protein percentage degradation <30%)”.

On to `CC(=O)c1c(C)c2cnc(Nc3ccc(N4CCN(CCOCCOCCOCCC(=O)Nc5ccccc5C(=O)Nc5nc(C)c(C)s5)CC4)cn3)nc2n(C2CCCC2)c1=O` [CPD-178, 2-(3-(2-(2-(2-(4-(6-((6-Acetyl-8-cyclopentyl-5-methyl-7-oxo-7,8-dihydropyrido[2,3-d]pyrimidin-2-yl)amino)pyridin-3-yl)piperazin-1-yl)ethoxy)ethoxy)ethoxy)propanamido)-N-(4,5-dimethylthiazol-2-yl)benzamide], for which the inhibition at 0.2 µM on CDK4 (Calu-1, 16 h) is under 30%. Besides, the “CyclinD1 Degradation (200 nM)” value in the assay on cyclin D1 is listed as “D (protein percentage degradation <30%)”.

As to `CC(=O)c1c(C)c2cnc(Nc3ccc(N4CCN(CC(=O)NCCOCCOCCC(=O)NC5CCCCC5C(=O)Nc5nc(C)c(C)s5)CC4)cn3)nc2n(C2CCCC2)c1=O` (stereo not drawn) [CPD-179, 2-(3-(2-(2-(2-(4-(6-((6-Acetyl-8-cyclopentyl-5-methyl-7-oxo-7,8-dihydropyrido[2,3-d]pyrimidin-2-yl)amino)pyridin-3-yl)piperazin-1-yl)acetamido)ethoxy)ethoxy)propanamido)-N-(4,5-dimethylthiazol-2-yl)cyclohexane-1-carboxamide], the inhibition at 0.2 µM on CDK4 (Calu-1 cells, 200 nM, 16 hours) is under 30%. Besides, in the assay with cyclin D1, the “CyclinD1 Degradation (200 nM)” value is recorded as “D (protein percentage degradation <30%)”.

On to `CC(=O)c1c(C)c2cnc(Nc3ccc(N4CCN(CC(=O)NCC(=O)Nc5ccccc5C(=O)Nc5nc(C)c(C)s5)CC4)cn3)nc2n(C2CCCC2)c1=O` [CPD-180, 2-(2-(2-(4-(6-((6-Acetyl-8-cyclopentyl-5-methyl-7-oxo-7,8-dihydropyrido[2,3-d]pyrimidin-2-yl)amino)pyridin-3-yl)piperazin-1-yl)acetamido)acetamido)-N-(4,5-dimethylthiazol-2-yl)benzamide], for which the inhibition at 0.2 µM on CDK4 (Calu-1 cells, 200 nM, 16 hours) is under 30%. Also, the “CyclinD1 Degradation (200 nM)” value in the assay on cyclin D1 was “D (protein percentage degradation <30%)”.

For the compound `CC(=O)c1c(C)c2cnc(Nc3ccc(N4CCN(C(=O)CCOCCC(=O)Nc5ccccc5C(=O)Nc5nc(C)c(C)s5)CC4)cn3)nc2n(C2CCCC2)c1=O` [CPD-181, 2-(3-(3-(4-(6-((6-Acetyl-8-cyclopentyl-5-methyl-7-oxo-7,8-dihydropyrido[2,3-d]pyrimidin-2-yl)amino)pyridin-3-yl)piperazin-1-yl)-3-oxopropoxy)propanamido)-N-(4,5-dimethylthiazol-2-yl)benzamide], at CDK4 (Calu-1, 16 h), the inhibition at 0.2 µM was under 30%. The “CyclinD1 Degradation (200 nM)” value with cyclin D1 is listed as “D (protein percentage degradation <30%)”.

For the compound `CC(=O)c1c(C)c2cnc(Nc3ccc(N4CCN(C(=O)CCOCCOCCOCCOCCOCCOCCC(=O)Nc5ccccc5C(=O)Nc5nc(C)c(C)s5)CC4)cn3)nc2n(C2CCCC2)c1=O` [CPD-182, 22-(4-(6-((6-Acetyl-8-cyclopentyl-5-methyl-7-oxo-7,8-dihydropyrido[2,3-d]pyrimidin-2-yl)amino)pyridin-3-yl)piperazin-1-yl)-N-(2-((4,5-dimethylthiazol-2-yl)carbamoyl)phenyl)-22-oxo-4,7,10,13,16,19-hexaoxadocosanamide], the inhibition at 0.2 µM on CDK4 (Calu-1, 16 h) was under 30%. The “CyclinD1 Degradation (200 nM)” value with cyclin D1 is “D (protein percentage degradation <30%)”.
